This assay concerns the target T1, HDM2 (Homo sapiens, UniProt Q00987).
T1 construct: Thioredoxin (N); made in house; host or cells: E. coli strain BL21(DE3)Rosetta
Put plainly: HDM2 FRET assay (inhibition of binding of FITC labeled p53-pocket peptide to HDM2). Conditions: read-out: FRET IC50. The method, boiled down:
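Displacement of FITC-p53 peptide (3 nM) from His-tagged HDM2 (0.5 nM) is measured by Tb-to-fluorescein FRET in PBS, 0.01% BSA, 0.01% Tween-20. IC50 values derive from 10-point curves.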

Setting [1] is: 0.5 nM HDM2 (residues 17 to 125), 3nM peptide, two hour incubation at room temperature.

This is an account of results in patent EP2951180B1, “2,6,7,8 SUBSTITUTED PURINES AS HDM2 INHIBITORS” (Merck Sharp & Dohme Corp., priority 2013, dated 2014).

Usually IC50 stands for the midpoint of a concentration-inhibition curve.

Like-named read-outs stand apart in the source and are kept apart here.

T1 sequence (Q00987 17-125): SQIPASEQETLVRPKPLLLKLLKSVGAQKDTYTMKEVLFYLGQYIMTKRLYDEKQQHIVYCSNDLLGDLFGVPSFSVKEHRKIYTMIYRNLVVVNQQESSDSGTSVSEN

On to `CC(C)[C@@H]1COCCN1c1nc2nc(-c3noc(=O)[nH]3)nc(-c3cccc(Cl)c3)c2n1C[C@H]1CC[C@H](C)CC1` [Example 16.42, 3-{6-(3-chlorophenyl)-7-[(trans-4-methylcyclohexyl)methyl]-8-[(3R)-3-(1-methylethyl)morpholin-4-yl]-7H-purin-2-yl}-1 ,2,4-oxadiazol-5(4H)-one], for which the IC50 under setting [1] stood at 3.62 nM.
With `Cc1cccc(-c2nc3nc(C(=O)O)nc(N[C@H](CC(O)CO)C4CCC4)c3n2Cc2ccc(C(F)(F)F)cc2)c1` (stereo partly drawn) [Example 7.15, 6-{[(1R)-1-cyclobutyl-3,4-dihydroxybutyl]amino}-8-(3-methylphenyl)-7-[4-(trifluoromethyl)benzyl]-7H-purine-2-carboxylic acid], under “Table 7”, the 50% inhibitory concentration (IC50) stood at 26.5 nM.
Consider `CC(C)c1ccnc(-c2nc3nc(CNS(C)(=O)=O)nc(N[C@H](C)C4CCC4)c3n2C[C@H]2CC[C@H](C)CC2)c1` [Example 12.9, N-[(6-{[(1R)-1-cyclobutylethyl]amino}-7-[(trans-4-methylcyclohexyl)methyl]-8-[4-(propan-2-yl)pyridin-2-yl]-7H-purin-2-yl)methyl]methanesulfonamide], for which, under setting [1], the IC50 turned out to be 374 nM.
Turning to `C[C@@H](Nc1nc(C(=O)O)nc2nc(COc3ccccc3)n(Cc3ccc(C(F)(F)F)cc3)c12)C1CCC1` [Example 10.1, (R)-6-((1-cyclobutylethyl)amino)-8-(phenoxymethyl)-7-(4-(trifluoromethyl)benzyl)-7H-purine-2-carboxylic acid], the IC50 (Table 10) came to 37.5 nM.
On to `C[C@@H](Nc1nc(-c2noc(=O)[nH]2)nc2nc(C(=O)C(C)(C)C)n(C[C@H]3CC[C@H](C)CC3)c12)C1CCC1` [Example 22.1, 3-(6-{[(1R)-1-cyclobutylethyl]amino}-8-(2,2-dimethylpropanoyl)-7-[(trans-4-methylcyclohexyl)methyl]-7H-purin-2-yl)-1,2,4-oxadiazol-5(4H)-one], for which, for the setting “Table 22”, the IC50 is 4.65 nM.
On to `C[C@H]1CC[C@H](Cn2c(C(O)C3CCOCC3)nc3nc(-c4n[nH]c(=O)o4)nc(-c4cccc(Cl)c4)c32)CC1` (mixture of isomers) [Example 23.1, 5-{6-(3-chlorophenyl)-8-[hydroxy(tetrahydro-2H-pyran-4-yl)methyl]-7-[(trans-4-methylcyclohexyl)methyl] -7H-purin-2-yl}-1,3,4-oxadiazol-2(3H)-one], for which the half-maximal inhibitory concentration (IC50) (Table 23) amounted to 67.3 nM.
Consider `C[C@@H](Nc1nc(-c2noc(=O)[nH]2)nc2nc(C(O)(c3ccccc3)C(F)(F)F)n(C[C@H]3CC[C@H](C)CC3)c12)C1CCC1` (single isomer, unassigned) [Example 22.28], for which, for the setting “Table 22”, the IC50 was 27.3 nM.
As for `C[C@H]1CC[C@H](Cn2c(N3CCOC[C@H]3c3ccccc3)nc3nc(-c4noc(=O)[nH]4)nc(C4CCCCC4)c32)CC1` [Example 16.165, 3-{6-cyclohexyl-7-[(trans-4-methylcyclohexyl)methyl]-8-[(3R)-3-phenylmorpholin-4-yl]-7H-purin-2-yl}-1,2,4-oxadiazol-5(4H)-one], the 50% inhibitory concentration (IC50) under setting [1] was 5.08 nM.
Turning to `CCN(C)c1nc2nc(-c3noc(=O)[nH]3)nc(N[C@H](C)C3CCC3)c2n1C[C@H]1CC[C@H](C)CC1` [Example 11.115, 3-(6-{[(1R)-1-cyclobutylethyl]amino}-8-[ethyl(methyl)amino]-7-[(trans-4-methylcyclohexyl)methyl]-7H-purin-2-yl)-1,2,4-oxadiazol-5(2H)-one], the IC50 (Table 11) was determined as 8.13 nM.
With `CC(C)c1ccnc(-c2nc3nc(CO)nc(N[C@H](C)C4CCC4)c3n2Cc2ccc(C(F)(F)F)cc2)c1` [Example 12.2, (6-{[(1R)-1-cyclobutylethyl]amino}-8-[4-(propan-2-yl)pyridin-2-yl]-7-[4-(trifluoromethyl)benzyl]-7H-purin-2-yl)methanol], under setting [1], the IC50 came to 597 nM.
On to `CC(C)S(=O)(=O)N1CCN(c2nc3nc(-c4noc(=O)[nH]4)nc(N[C@H](C)C4CCC4)c3n2C[C@H]2CC[C@H](C)CC2)[C@H](C)C1` [Example 17.17, 3-(6-{[(1R)-1-cyclobutylethyl]amino}-7-[(trans-4-methylcyclohexyl)methyl]-8-{(2R)-2-methyl-4-[(1-methylethyl)sulfonyl]piperazin-1-yl}-7H-purin-2-yl)-1,2,4-oxadiazol-5(4H)-one], for which, for the setting “Table 17.2”, the IC50 was 10.1 nM.
Same read-out and setting: the same measure for `CC(=O)N1CCN(c2nc3nc(-c4noc(=O)[nH]4)nc(N[C@H](C)C4CCC4)c3n2C[C@H]2CC[C@H](C)CC2)[C@H](c2ccccc2)C1` [Example 17.10, 3-{8-[(2R)-4-acetyl-2-phenylpiperazin-1-yl]-6-{[(1R)-1-cyclobutylethyl]amino}-7-[(trans-4-methylcyclohexyl)methyl]-7H-purin-2-yl}-1,2,4-oxadiazol-5(4H)-one]: 0.215 nM.
As for `C[C@H]1CC[C@H](Cn2c(C(O)C3CCOCC3)nc3nc(-c4noc(=O)[nH]4)nc(-c4cccc(Cl)c4)c32)CC1` (mixture of isomers) [Example 23.2, 3-{6-(3-chlorophenyl)-8-[hydroxy(tetrahydro-2H-pyran-4-yl)methyl]-7-[(trans-4-methylcyclohexyl)methyl]-7H-purin-2-yl}-1,2,4-oxadiazol-5(4H)-one], the IC50 (Table 23) was 51.5 nM.
As to `C[C@@H](Nc1nc(C(=O)O)nc2nc(N3CCOCC3)n(Cc3ccc(C(F)(F)F)cc3)c12)C1CCC1` [Example 9.118, 6-{[(1R)-1-cyclobutylethyl]amino}-8-morpholin-4-yl-7-[4-(trifluoromethyl)benzyl]-7H-purine-2-carboxylic acid], the concentration for half-maximal inhibition (IC50) (Table 9) was 51.8 nM.
For the compound `C=C(c1ccccc1)c1nc2nc(-c3noc(=O)[nH]3)nc(N[C@H](C)C3CCC3)c2n1C[C@H]1CC[C@H](C)CC1` [Example 21.13, 3-[6-{[(1R)-1-cyclobutylethyl]amino}-7-[(trans-4-methylcyclohexyl)methyl]-8-(1-phenylethenyl)-7H-purin-2-yl]-1,2,4-oxadiazol-5(4H)-one], under “Table 21”, the IC50 amounted to 1.9 nM.
Same read-out and setting: in the case of `C[C@@H](Nc1nc(C(=O)O)nc2nc(C3=C(c4ccccc4)CCCC3)n(Cc3ccc(C(F)(F)F)cc3)c12)C1CCC1` [Example 21.3, 6-{[(1R)-1-cyclobutylethyl]amino}-8-(2-phenylcyclohex-1-en-1-yl)-7-[4-(trifluoromethyl)benzyl]-7H-purine-2-carboxylic acid] it was 5.82 nM.
In the case of `C[C@@H](Nc1nc(-c2noc(=O)[nH]2)nc2nc(S(=O)(=O)c3ccccc3)n(C[C@H]3CC[C@H](C)CC3)c12)C1CCC1` [Example 19.3, 3-[6-{[(1R)-1-cyclobutylethyl]amino}-7-[(trans-4-methylcyclohexyl)methyl]-8-(phenylsulfonyl)-7H-purin-2-yl]-1,2,4-oxadiazol-5(4H)-one], the IC50 (Table 19) came out at 0.943 nM.
Turning to `COCC1COCCN1c1nc2nc(-c3noc(=O)[nH]3)nc(N[C@H](C)C3CCC3)c2n1C[C@H]1CC[C@H](C)CC1` (single isomer, unassigned) [Example 11.150], the IC50 (Table 11) was 6.73 nM.
In the case of `CN(Cc1ccccc1)c1nc2nc(-c3noc(=O)[nH]3)nc(-c3cccc(Cl)c3)c2n1C[C@H]1CC[C@H](C)CC1` [Example 16.56, 3-{8-[benzyl(methyl)amino]-6-(3-chlorophenyl)-7-[(trans-4-methylcyclohexyl)methyl]-7H-purin-2-yl}-1,2,4-oxadiazol-5(4H)-one], the IC50 under setting [1] stood at 42.9 nM.
With `Cc1cccc(-c2nc3nc(C(=O)O)nc(NC(C)C(C)C)c3n2Cc2ccc(C(F)(F)F)cc2)c1` (centres unmarked) [Example 6.73, 6-[(1,2-dimethylpropyl)amino]-8-(3-methylphenyl)-7-[4-(trifluoromethyl)benzyl]-7H-purine-2-carboxylic acid], under “Table 6”, the IC50 worked out at 437 nM.
Consider `C[C@H](Nc1nc2nc(C(=O)O)nc(N[C@H](C)C3CCC3)c2n1Cc1ccc(C(F)(F)F)cc1)c1cccc(F)c1` [Example 9.39, 6-{[(1R)-1-cyclobutylethyl]amino}-8-{[(1S)-1-(3-fluorophenyl)ethyl]amino}-7-[4-(trifluoromethyl)benzyl]-7H-purine-2-carboxylic acid], for which the IC50 (Table 9) amounted to 0.753 nM.
On the same count and under the same terms, the same measure for `C[C@@H](Nc1nc(C(=O)O)nc2nc(N3CCOC[C@@H]3c3ccccc3)n(Cc3ccc(C(F)(F)F)cc3)c12)C1CCC1` [Example 9.51, 6-{[(1R)-1-cyclobutylethyl]amino}-8-[(3S)-3-phenylmorpholin-4-yl]-7-[4-(trifluoromethyl)benzyl]-7H-purine-2-carboxylic acid]: 120 nM.
For `COc1ccc(C)cc1-c1nc2nc(C(=O)O)nc(N[C@H](C)C3CC(F)(F)C3)c2n1Cc1ccc(C(F)(F)F)cc1` [Example 7.17, 6-{[(1R)-1-(3,3-difluorocyclobutyl)ethyl]amino}-8-(2-methoxy-5-methylphenyl)-7-[4-(trifluoromethyl)benzyl]-7H-purine-2-carboxylic acid], where the note is “Table 7”, the half-maximal inhibitory concentration (IC50) turned out to be 58.9 nM.
`C[C@H]1CC[C@H](Cn2c(N3CCO[C@@H]4CCC[C@H]43)nc3nc(-c4noc(=O)[nH]4)nc(-c4cncc(Cl)c4)c32)CC1` [Example 16.87, 3-{6-(5-chloropyridin-3-yl)-8-[(4aR,7aR)-hexahydrocyclopenta [b][1,4]oxazin-4(4aH)-yl]-7-[(trans-4-methylcyclohexyl)met52hyl]-7H-purin-2-yl}-1,2,4-oxadiazol-5(4H)-one]: the 50% inhibitory concentration (IC50) under setting [1] was 1.56 nM.
For `C[C@@H](Nc1nc(C(=O)O)nc2nc(C3CCCCC3)n(C[C@H]3CC[C@H](C)CC3)c12)C1CCC1` [Example 21.38, 6-{[(1R)-1-cyclobutylethyl]amino}-8-cyclohexyl-7-[(trans-4-methylcyclohexyl)methyl]-7H-purine-2-carboxylic acid], the IC50 (Table 21) stood at 2.68 nM.
Turning to `C[C@H]1CC[C@H](Cn2c(C3CC3)nc3nc(-c4n[nH]c(=O)o4)nc(-c4cccc(Cl)c4)c32)CC1` [Example 24.1, 5-{6-(3-chlorophenyl)-8-cyclopropyl-7-[(trans-4-methylcyclohexyl)methyl]-7H-purin-2-yl}-1,3,4-oxadiazol-2(3H)-one], the IC50 under setting [1] turned out to be 62.8 nM.
